This note sets out measurements from patent publication US12310944B2 (priority 2019, dated 2025).

Read-outs that look alike come from different tables or passages of the source.

The target of data set [1] is T1, eqBuChE (BuChE, E.C.3.1.1.8, selected from horse serum) (Equus caballus, UniProt P81908).
T1 construct: BuChE (E.C.3.1.1.8, selected from horse serum); purchased Sigma; host or cells: horse serum
The data set is described as follows: Cholinesterase inhibitory activity (DTNB/BTC), eqBuChE. The class given is biochemical. The text has this: Determination of Cholinesterase Inhibitory Activity:
Drugs and reagents: Test compounds, AChE (E.C.3.1.1.7, Type VI-S, selected from electric eel), BuChE (E.C.3.1.1.8, selected from horse serum), 5,5′-dithiobis(2-nitrobenzoic acid) (DTNB), acetylthiocholine (ATC) iodide and butyrylthiocholine (BTC) iodide were all purchased from Sigma; the positive control tacrine hydrochloride (9-amino-1,2,3,4-tetrahydroacridine hydrochloride hydrate) was purchased from BioTrend.
(§1) Instrument: THERMO Varioskan Flash full-wavelength multifunctional microplate reader.
(1) Formulation of buffer: 13.6 g of potassium dihydrogen phosphate was dissolved in 1 L of water, and pH was adjusted with potassium hydroxide to reach pH=8±0.1. The solution was stored at 4° C. for later use.
(2) Formulation of 0.01 M DTNB solution: 0.396 g of DTNB and 0.15 g of sodium bicarbonate were dissolved in 100 mL of water to prepare a 0.01 M DTNB solution, which was stored at −30° C. for later use.
(3) Formulation of 0.075 M ATC and BTC solutions: 0.217 g of ATC was dissolved in 10 mL of water to prepare a 0.075 M ATC solution, which was stored at −30° C. for later use; 0.237 g of BTC was dissolved in 10 mL of water to prepare a 0.075 M BTC solution, which was stored at −30° C. for later use.
(4) Formulation of AChE and BuChE solutions: 5,000 units of AChE were dissolved in 1 mL of 1% gel solution, and then diluted to 100 mL with water to prepare a AChE solution with a concentration of 5 units/mL, which was stored at −30° C. for later use; 5,000 units of BuChE were dissolved in 1 mL of 1% gel solution, and then diluted to 100 mL with water to prepare a BuChE solution with a concentration of 5 units/mL, which was stored at −30° C. for later use.
(5) Formulation of test substance solution: The test compound was dissolved in ethanol to obtain a solution with a concentration of 10^−3 M (ethanol would not affect the test results), and then diluted with water to prepare solutions with concentrations of […], 10^−5, 10^−6, 10^−7, 10^−8, 10^−9, and 10^−10 M, respectively.
Before the start of the experiment, all the solutions as used were warmed to room temperature, and the AChE and BuChE solutions were diluted 1-fold with water to prepare an enzyme solution with a concentration of 2.5 units/mL. The background UV absorbance was measured with a blank buffer (3 mL) as a subtraction value. Firstly, 100 μL of test compound solution, 100 μL of DTNB solution, and 100 μL of enzyme solution were added to 3 mL of buffer. After adding 20 μL of ATC or BTC solution to trigger the reaction, the time was recorded immediately and the test solution was mixted quickly and uniformly at the same time. After 2 minutes, the UV absorbance was measured at a wavelength of […]. The blank control group was measured with an equal volume of water instead of the test substance solution. All tests were performed three times in parallel. The UV absorption value of the blank control group was taken as 100%, the absorbance (OD value) of the test compound at each concentration was recorded, and GraphPad Prism™ (GraphPad Software, San Diego, CA, USA) software was used to analyze the results in a non-linear regression analysis model to calculate the corresponding IC50 values, as shown in Table 1.

The target of a further data set is hBuChE (Homo sapiens, UniProt P06276). The data set is described as follows: Cholinesterase inhibitory activity (DTNB/BTC), hBuChE. In kind it is biochemical. The note with it: mean ± SEM.
The next data set deals with PC-12 neural cell line. The data set is described as follows: Toxicity test in PC-12 nerve cell (MTT). In kind it is cell-based. To be noted: PC-12 cells; for SR(%) cell survival rate, 20 μM: 20 μM compound for 24 h; for SR(%) cell survival rate, 50 μM: 50 μM compound for 24 h. How it is done:
Toxicity Test in PC-12 Nerve Cell:
Drugs and reagents: Test compounds, DMEM medium (01-050-1A) purchased from Biological Industries, FBS fetal bovine serum (04-001-1A) purchased from Biological Industries, MTT thiazolyl blue reagent (KGT525500) purchased from KeyGEN BioTECH.
as §1
About 3×10^3 PC-12 cells were evenly mixed in 0.1 mL of DMEM medium containing 10% FBS, and plated on a 96-well bottom plate, and incubated overnight at 37° C. in an environment containing 5% CO2. The 20 μM and 50 μM compounds diluted in 0.1 mL of DMEM medium were treated on the cells for 24 hours. Then MTT reagent was added to the well plate, and the plate was incubated at 37° C. for 2 to 4 hours. The color reaction was measured at 492 nm using a spectrophotometer (Thermo, multiskan FC).

[2] abbreviates: read-out: IC50 (nM) ± SEM eqBuChE.

T1 sequence (P81908 whole entry): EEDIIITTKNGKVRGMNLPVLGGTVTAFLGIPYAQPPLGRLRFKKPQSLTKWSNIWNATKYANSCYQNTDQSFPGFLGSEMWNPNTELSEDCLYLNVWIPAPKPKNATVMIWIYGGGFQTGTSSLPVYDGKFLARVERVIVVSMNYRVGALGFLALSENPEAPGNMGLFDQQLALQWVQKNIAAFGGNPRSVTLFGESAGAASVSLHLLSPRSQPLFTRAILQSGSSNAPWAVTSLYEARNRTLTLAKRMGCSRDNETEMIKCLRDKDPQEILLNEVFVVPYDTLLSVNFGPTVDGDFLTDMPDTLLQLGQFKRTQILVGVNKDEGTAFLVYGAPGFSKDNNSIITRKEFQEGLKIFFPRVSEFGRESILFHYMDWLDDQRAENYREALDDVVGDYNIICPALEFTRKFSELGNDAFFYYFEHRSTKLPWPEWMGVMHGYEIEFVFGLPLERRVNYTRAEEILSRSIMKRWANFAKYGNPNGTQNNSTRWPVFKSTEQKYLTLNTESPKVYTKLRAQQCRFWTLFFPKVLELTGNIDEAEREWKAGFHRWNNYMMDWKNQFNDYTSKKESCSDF

The term IC50 denotes the concentration that gives 50% inhibition. `CCN(CC)Cc1cccc(CNC(=O)c2cccc(NC(=O)c3cccs3)c2)c1` [Compound 37, N-(3-((3-((diethylamino)methyl)benzyl)carbamoyl)phenyl)thiophene-2-carboxamide]: the IC50 in data set [1] (setting [2]) is 12.6 ± 0.86 nM. The compound further returned an IC50 at hBuChE of 32.9 ± 15.7 nM. In the data set on PC-12 neural cell line, the “SR(%) cell survival rate, 20 μM” value was 92.05% and the “SR(%) cell survival rate, 50 μM” value turned out to be 82.03%.
In turn, `CCN(CC)Cc1ccccc1CNC(=O)c1cccc(NC(=O)c2ccc(C(C)=O)cc2)c1` [Compound 30] displayed an IC50 in data set [1] (eqBuChE, mean ± SEM, three parallel tests) of 6.63 ± 0.66 nM. Besides, at hBuChE, the IC50 is 24 ± 1.52 nM. Also, in the data set on PC-12 neural cell line, the “SR(%) cell survival rate, 20 μM” value is on record as 91.86% and the “SR(%) cell survival rate, 50 μM” value is 72.56%.
In the case of `CCN(CC)Cc1ccccc1CNC(=O)c1cccc(NC(=O)c2ccc([N+](=O)[O-])cc2)c1` [Compound 32], the results for the IC50 (in data set [1] (setting [2]); against hBuChE) were 22.6 ± 0.98 nM and 30.9 ± 3.26 nM, respectively. In addition, in the data set with PC-12 neural cell line, the “SR(%) cell survival rate, 20 μM” value is reported as 97.42%. Besides, the “SR(%) cell survival rate, 50 μM” value in the data set on PC-12 neural cell line is recorded as 84.65%.
Taken in the same sequence, the figures for `CCN(CC)Cc1ccccc1CNC(=O)c1cccc(NC(=O)c2ccc(I)cc2)c1` [Compound 21, 3-(4-iodobenzamido)-N-(2-((diethylamino)methyl)benzyl)benzamide] were 1.59 ± 0.26 nM, 3.33 ± 1.62 nM, 94.40% and 89.63%.
The like results for `CCN(CC)Cc1ccccc1CNC(=O)c1cccc(NC(=O)c2ncc[nH]2)c1` [Compound 9, N-(3-((2-((diethylamino)methyl)benzyl)carbamoyl)phenyl)-imidazole-2-carboxamide] were, in that order, 0.52 ± 0.1 nM, 1.91 ± 0.24 nM, 80.36% and 70.74%.
Regarding `CCN(CC)Cc1ccccc1CNC(=O)c1cccc(NC(=O)c2ccccc2OC)c1` [Compound 28], the IC50 in data set [1] (setting [2]) is 5.28 ± 1.21 nM. The midpoint of inhibition at hBuChE, the IC50, lay at 20 ± 2.06 nM. Also, in the data set with PC-12 neural cell line, the “SR(%) cell survival rate, 20 μM” value came out at 95.42% and the “SR(%) cell survival rate, 50 μM” value turned out to be 85.46%.
Take `CCN(CC)Cc1ccccc1CNC(=O)c1cccc(NC(=O)c2ccc(O)cc2)c1` [Compound 12, N-(2-((diethylamino)methyl)benzyl)-3-(4-hydroxybenzamido)benzamide]: the IC50 in data set [1] (setting [2]) amounted to 0.79 ± 0.19 nM. For the same compound, at hBuChE, the IC50 is 2.45 ± 0.37 nM. Moreover, in the data set on PC-12 neural cell line, the “SR(%) cell survival rate, 20 μM” value came to 91.46% and the “SR(%) cell survival rate, 50 μM” value turned out to be 89.64%.
Consider `CCN(CC)Cc1ccccc1CNC(=O)c1cccc(NC(=O)c2ccc(C(C)C)cc2)c1` [Compound 24], for which the IC50 in data set [1] (setting [2]) was 0.58 ± 0.67 nM. Further, at hBuChE, the IC50 was 2.08 ± 0.73 nM. In the data set with PC-12 neural cell line, the “SR(%) cell survival rate, 20 μM” value turned out to be 97.02% and the “SR(%) cell survival rate, 50 μM” value was 86.21%.
Consider `CCN(CC)Cc1ccccc1CNC(=O)c1cccc(NC(=O)c2nccs2)c1` [Compound 8, N-(3-((2-((diethylamino)methyl)benzyl)carbamoyl)phenyl)-thiazole-2-carboxamide], for which the IC50 in data set [1] (setting [2]) was 0.75 ± 0.14 nM. For the same compound, on hBuChE, the IC50 was found to be 1.88 ± 0.52 nM. For the same compound, in the data set with PC-12 neural cell line, the “SR(%) cell survival rate, 20 μM” value came to 93.57% and the “SR(%) cell survival rate, 50 μM” value came out at 89.42%.
